Measurements: ChEMBL document CHEMBL5360581, “Discovery of a novel dual functional phenylpyrazole-styryl hybrid that induces apoptotic and autophagic cell death in bladder cancer cells” (Eur J Med Chem, 2023)
Calls of active or inactive are those of the source. No cut-off for these calls is given here.

Assays:
HT-1080 [1] = assay: Cytotoxicity against human HT-1080 cells assessed inhibition of cell growth incubated for 72 hrs by MTT assay; type: functional, cell-based; conditions: HT-1080, 72 h
MCF7 [2] = assay: Cytotoxicity against human MCF7 cells assessed inhibition of cell growth incubated for 72 hrs by MTT assay; type: functional, cell-based; conditions: MCF7, 72 h
EJ-28 [3] = assay: Antiproliferative activity against human EJ-28 cells assessed as reduction in cell viability at 20 uM measured for 72 hrs by MTT assay; type: functional, cell-based
EJ-28 [4] = assay: Cytotoxicity against human EJ-28 cells assessed inhibition of cell growth incubated for 72 hrs by MTT assay; type: functional, cell-based; conditions: EJ-28, 72 h
[5] = Cytotoxicity against human NHDF cells assessed inhibition of cell growth incubated for 72 hrs by MTT assay; type: toxicity, cell-based
HT-1080 [6] = assay: Antiproliferative activity against human HT-1080 cells assessed as reduction in cell viability at 20 uM measured for 72 hrs by MTT assay; type: functional, cell-based
SW-620 [7] = assay: Cytotoxicity against human SW620 cells assessed inhibition of cell growth incubated for 72 hrs by MTT assay; type: functional, cell-based; conditions: SW-620, 72 h
SW-620 [8] = assay: Antiproliferative activity against human SW620 cells assessed as reduction in cell viability at 20 uM measured for 72 hrs by MTT assay; type: functional, cell-based
A549 [9] = assay: Antiproliferative activity against human A549 cells assessed as reduction in cell viability at 20 uM measured for 72 hrs by MTT assay; type: functional, cell-based
[10] = Selectivity index, ratio of IC50 for cytotoxicity against human NHDF cells to IC50 for cytotoxicity against human SW620 cells
[11] = Selectivity index, ratio of IC50 for cytotoxicity against human NHDF cells to IC50 for cytotoxicity against human HT-1080 cells
A549 [12] = assay: Cytotoxicity against human A549 cells assessed inhibition of cell growth incubated for 72 hrs by MTT assay; type: functional, cell-based; conditions: A549, 72 h
[13] = Selectivity index, ratio of IC50 for cytotoxicity against human NHDF cells to IC50 for cytotoxicity against human A549 cells; type: toxicity, cell-based; conditions: NHDF cells and A549 cells, read-out: Ratio IC50
[14] = Selectivity index, ratio of IC50 for cytotoxicity against human NHDF cells to IC50 for cytotoxicity against human MCF7 cells; type: toxicity, cell-based; conditions: NHDF cells and MCF7 cells, read-out: Ratio IC50
[15] = Selectivity index, ratio of IC50 for cytotoxicity against human NHDF cells to IC50 for cytotoxicity against human EJ-28 cells
MCF7 [16] = assay: Antiproliferative activity against human MCF7 cells assessed as reduction in cell viability at 20 uM measured for 72 hrs by MTT assay; type: functional, cell-based

SMILES | IC50 (HT-1080 [1]) | IC50 (MCF7 [2]) | Activity (EJ-28 [3]) | IC50 (EJ-28 [4]) | IC50 at 72 h [5] | Activity (HT-1080 [6]) | IC50 (SW-620 [7]) | Activity (SW-620 [8]) | Activity (A549 [9]) | Ratio IC50 [10] | Ratio IC50 [11] | IC50 (A549 [12]) | selectivity ratio [13] | selectivity ratio [14] | Ratio IC50 [15] | Activity (MCF7 [16])
Oc1ccc(Cl)cc1-c1cc(/C=C/c2ccc(Cl)cc2)nn1-c1ccccc1 | 17.4 µM | 10.6 µM | Active | 6.5 µM | 42.9 µM | Active | 16.6 µM | Active | Active | 2 | 2 | 21.5 µM | 2 | 2 | 2 | Active
COc1cccc(/C=C/c2cc(-c3ccccc3O)n(-c3ccccc3)n2)c1 | 20 µM | 16.2 µM | Active | 14.3 µM | > 50 µM | Active | 22.1 µM | Active | Active | >2.2 | >2.2 | 22.8 µM | > 2.2 | > 2.2 | >2.2 | Active
Oc1ccc(Cl)cc1-c1cc(/C=C/c2cccs2)nn1-c1ccccc1 | 19.6 µM | 5.5 µM | Active | 11.6 µM | 39.6 µM | Active | 19 µM | Active | Active | 2 | 2 | 17.1 µM | 2 | 2 | 2 | Active
Oc1ccccc1-c1cc(/C=C/c2ccc(Cl)cc2)nn1-c1ccccc1 | 15.8 µM | 15.2 µM | Active | 13.4 µM | 40.5 µM | Active | 16.5 µM | Active | Active | 1.5 | 1.5 | 26.3 µM | 1.5 | 1.5 | 1.5 | Active
Cc1ccc(/C=C/c2cc(-c3cc(Cl)ccc3O)n(-c3ccccc3)n2)s1 | 21.7 µM | 11.1 µM | Active | 8.6 µM | 39.4 µM | Active | 23 µM | Active | Active | 1.7 | 1.7 | 22.7 µM | 1.7 | 1.7 | 1.7 | Active
Oc1ccccc1-c1cc(/C=C/c2cccs2)nn1-c1ccccc1 | 12.8 µM | 9.1 µM | Active | 14.3 µM | 19.2 µM | Active | 11.9 µM | Active | Active | 1 | 1 | 18.5 µM | 1 | 1 | 1 | Active
O=[N+]([O-])c1cccc(/C=C/c2cc(-c3ccccc3O)n(-c3ccccc3)n2)c1 | 16.5 µM | 15 µM | Active | 7.4 µM | 42.9 µM | Active | 9.7 µM | Active | Active | 2 | 2 | 21.7 µM | 2 | 2 | 2 | Active
Cc1ccc(/C=C/c2cc(-c3ccccc3O)n(-c3ccccc3)n2)s1 | 14.2 µM | 12.6 µM | Active | 11 µM | 17.9 µM | Active | 16.2 µM | Active | Active | 1.1 | 1.1 | 14.5 µM | 1.1 | 1.1 | 1.1 | Active
Oc1ccc(Cl)cc1-c1cc(/C=C/c2ccc(Cl)c(Cl)c2)nn1-c1ccccc1 | 17.8 µM | 15 µM | Active | 4.4 µM | 40.2 µM | Active | 19.2 µM | Active | Active | 2 | 2 | 20.2 µM | 2 | 2 | 2 | Active
COc1cc(/C=C/c2cc(-c3ccccc3O)n(-c3ccccc3)n2)cc(OC)c1OC | 14.1 µM | 10.4 µM | Active | 12.3 µM | > 50 µM | Active | 7.6 µM | Active | Active | >3.4 | >3.4 | 14.6 µM | > 3.4 | > 3.4 | >3.4 | Active
